Experimental data taken from PMC6327263, “Evaluation of Novel 3-Hydroxyflavone Analogues as HDAC Inhibitors against Colorectal Cancer” (Advances in Pharmacological Sciences, 2018).
Where “and” joins values, the source holds several entries; their conditions need not be identical. Identical values can stand only once. Marks after values point to notes of the source that are not given here.

Experiments:
HDAC8 = assay: Western blotting, HDAC8 expression; type: cell-based, human; settings: HCT116 cells, 24 h, compared to normal control
Experimental: (§1) After various treatments for 24 h, cells were lysed, and protein quantification of the lysates was estimated using the BCA™ kit (Thermo Fisher Scientific Inc., Waltham, MA, USA). Proteins samples (30 µg) were resolved on a 10% SDS-PAGE and transferred onto a PVDF membrane and blocked with 5% nonfat milk in TBST (tris-buffered saline with Tween-20) buffer for 1 h followed by washing in TBST buffer. The membrane was then probed with primary antibodies (GAPDH, HDAC8, p21^Waf1/Cip1, and acetyl-histone H3[Ac-Lys^9]) and incubated overnight at 4°C. The membrane was washed with TBST buffer and incubated with horseradish peroxidase-conjugated secondary antibody for 1 h at room temperature. Signal was captured using SuperSignal™ West Pico Plus chemiluminescent substrate (Thermo Fischer Scientific Inc., Waltham, MA, USA) on gel documentation system (G : BOX Chemi XRQ, Syngene).

DMH-induced colon cancer = type: in vivo, Wistar rats; settings: for ACF/5 cm^2 / Adenocarcinoma: 21 days treatment, quercetin, QMJ-2, QMJ-5 100 mg/kg p.o., mean ± SEM of six animals; for ACF/5 cm^2: DMH control 25 ± 2.1; for Adenocarcinoma: count in colon, DMH control 17 ± 1.7; for kidney index / liver index / spleen index: rat, in vivo, po, 100 mg/kg
Experimental: The two test compounds (QMJ-2 and QMJ-5) and quercetin were suspended in 0.25% w/v sodium carboxymethyl cellulose (CMC) and were administered orally (p.o.). 5-Fluorouracil (5-FU) which was used as a standard was procured in the form of injection and was administered intraperitonially (i.p.).
Colon cancer in experimental animals was induced using the highly specific carcinogen DMH, with few modifications from the previously described procedure. DMH was administered at a dose of 30 mg/kg i.p. once a week for 20 weeks. The incidence of aberrant crypt foci (ACF) and adenocarcinoma were confirmed by sacrificing few animals after 20 weeks of induction with DMH. Furthermore, the animals were randomized into five experimental groups, and various treatments were administered for a period of 21 days followed by the assessment of different parameters in the experimental animals.
(1) Experimental Groups • Group 1: animals received 0.25% CMC in water p.o. • Group 2: animals received 0.25% CMC in water p.o. (DMH control) • Group 3: animals received 5-FU at 10 mg/kg i.p. • Group 4: animals received quercetin at 100 mg/kg p.o. • Group 5: animals received QMJ-2 at 100 mg/kg p.o. • Group 6: animals received QMJ-5 at 100 mg/kg p.o.
(2) ACF Formation and Adenocarcinoma Incidence. The entire colon was excised from the experimental animals and was used to study the incidence of adenocarcinoma. The count and size were noted from each animal. For ACF formation, the distal part of the colon was excised, and the tissue was then cut open and fixed with 10% buffered formalin for 12 h. Following this, the tissue was stained with 0.1% methylene blue in PBS for 5 min. The tissues were then observed under microscope for ACF formation and were calculated as the number of counts/5 cm^2 in colon tissue.
(3) Colon Weight/Length Ratio and Organ Index. Length of the excised colon was measured in centimeters, and weight was measured in g. Colon weight/length ratio was then calculated. For the determination of organ index, major organs including spleen, liver, and kidney of the experimental animals were weighed in g and the respective index was calculated. […]

p21^Waf1/Cip1 = assay: Western blotting, p21Waf1/Cip1 expression; type: cell-based, human; settings: HCT116 cells, 24 h, compared to normal control
Experimental: as §1

acetyl histone H3K9 = assay: Western blotting, acetyl histone H3K9 expression; type: cell-based, human; settings: HCT116 cells, 24 h, compared to normal control
Experimental: as §1, with “Syngene). The protein band densities were estimated using the software ImageJ (version 1.46r, NIH, Bethesda, MD, USA).” for “Syngene).”

Wistar rats = type: in vivo; settings: 2000 mg/kg p.o., limit test, 14 days observation
Experimental: Animal care and handling were carried out according to the guidelines of the Committee for the Purpose of Control and Supervision of Experiments on Animals (CPCSEA), after seeking the approval of the research proposal by institutional animal ethics committee (IAEC) (IAEC/KMC/23/2015). Male Wistar rats inbred at the central animal research facility (CARF), Manipal academy of higher education (MAHE), was used in the present study. […] The animals were housed in sterile polypropylene cages containing sterile paddy husk and were provided with 12 h light and dark cycles.
The safe dose of the promising two analogues (QMJ-2 and QMJ-5) and quercetin were evaluated using Organization for Economic Cooperation and Development (OECD), 425 guidelines. Limit test was performed using 2000 mg/kg dose.

kidney index (DMH-induced colon cancer)	liver index (DMH-induced colon cancer)	Structure (SMILES)	HDAC8 expression (HDAC8)	ACF/5 cm^2 (DMH-induced colon cancer; 5-FU 10 mg/kg i.p.)	Adenocarcinoma (DMH-induced colon cancer; 5-FU 10 mg/kg i.p.)	expression of p21^Waf1/Cip1 (p21^Waf1/Cip1)	expression of acetylated histone H3K9 (acetyl histone H3K9)	acute toxicity, tolerability (Wistar rats)	mortality (Wistar rats)	spleen index (DMH-induced colon cancer)	colon weight/length ratio (DMH-induced colon cancer; compared with DMH control, 5-FU 10 mg/kg i.p., others 100 mg/kg p.o., 21 days)
no significant change	Significant reduction	Cc1ccc(-c2oc3cc(C)ccc3c(=O)c2O)cc1 [QMJ-5, 3-Hydroxy-7-methyl-2-(4-methylphenyl)-4H-1-benzopyran-4-one]	significant reduction	15 ± 2.6 /5 cm^2 and 15 ± 2.6^a /5 cm^2	11 ± 0.8^a	increased	significant increase	–	–	–	–
–	–	O=c1c(O)c(-c2ccc(O)c(O)c2)oc2cc(O)cc(O)c12 [Quercetin, quercetin, reference compound]	significant reduction	19 ± 2.6 /5 cm^2	15 ± 1.1	–	–	safe and well tolerated	no mortality	significant decrease	–
no significant change	Significant reduction	Cc1ccc(-c2oc3ccccc3c(=O)c2O)cc1 [QMJ-2, 3-Hydroxy-2-(4-methylphenyl)-4H-1-benzopyran-4-one]	–	16 ± 2.1 /5 cm^2 and 16 ± 2.1^a /5 cm^2	14 ± 1.3	increased	–	–	–	significant decrease	significant decrease
